# In ChEMBL document CHEMBL5370592, “Synthesis and Structure-Activity Relationships of a New Class of Oxadiazoles Targeting DprE1 as Antitubercular Agents” (ACS Med Chem Lett, 2023):
# How the values were obtained:
# Assay type in all cases: functional
# [1] = tested on: Mycobacterium tuberculosis; experiment: Antitubercular activity against ethambutol/D-cycloserine-resistant Mycobacterium tuberculosis NIH_G11R assessed as inhibition of bacterial growth incubated for 2 weeks; settings: 336 h
# [2] = tested on: Mycobacterium tuberculosis; experiment: Antitubercular activity against ethionamide-resistant Mycobacterium tuberculosis NIH_G145 assessed as inhibition of bacterial growth incubated for 2 weeks; settings: NIH_G145, 336 h
# [3] = tested on: Mycobacterium tuberculosis; experiment: Antitubercular activity against streptomycin/D-cycloserine-resistant Mycobacterium tuberculosis NIH_G169 assessed as inhibition of bacterial growth incubated for 2 weeks; settings: NIH_G169, 336 h
# [4] = tested on: Mycobacterium tuberculosis; experiment: Antitubercular activity against isoniazid/ethionamide/D-cycloserine-resistant Mycobacterium tuberculosis NIH_G17R assessed as inhibition of bacterial growth incubated for 2 weeks; settings: 336 h
# [5] = tested on: Mycobacterium tuberculosis; experiment: Antitubercular activity against isoniazid/ofloxacin/prothionamide-resistant Mycobacterium tuberculosis NIH1B127 assessed as inhibition of bacterial growth incubated for 2 weeks; settings: NIH1B127, 336 h
# [6] = tested on: Mycobacterium tuberculosis; experiment: Antitubercular activity against isoniazid/rifampicin/streptomycin-resistant Mycobacterium tuberculosis clinical strain 01291696 assessed as inhibition of bacterial growth incubated for 2 weeks; settings: Mycobacterium tuberculosis, 01291696, 336 h
# [7] = tested on: Mycobacterium tuberculosis; experiment: Antitubercular activity against isoniazid/rifampicin/ethambutol/rifabutin-resistant Mycobacterium tuberculosis K18b01MR assessed as inhibition of bacterial growth incubated for 2 weeks; settings: 336 h
# [8] = tested on: Mycobacterium tuberculosis; experiment: Antitubercular activity against isoniazid/rifampicin/ethambutol/streptomycin-resistant Mycobacterium tuberculosis K21b00MR assessed as inhibition of bacterial growth incubated for 2 weeks; settings: 336 h
# [9] = tested on: Mycobacterium tuberculosis; experiment: Antitubercular activity against isoniazid/rifampicin/ethambutol/rifabutin-resistant Mycobacterium tuberculosis K22b00MR assessed as inhibition of bacterial growth incubated for 2 weeks; settings: 336 h
# [10] = tested on: Mycobacterium tuberculosis; experiment: Antitubercular activity against isoniazid/rifampicin/ethambutol/pyrazinamid/rifabutin/prothionamide-resistant Mycobacterium tuberculosis K25b00MR assessed as inhibition of bacterial growth incubated for 2 weeks; settings: 336 h
# [11] = tested on: Mycobacterium tuberculosis; experiment: Antitubercular activity against isoniazid/rifampicin/ethambutol/pyrazinamid/rifabutin-resistant Mycobacterium tuberculosis K26b00MR assessed as inhibition of bacterial growth incubated for 2 weeks; settings: 336 h
# [12] = tested on: Mycobacterium tuberculosis; experiment: Antitubercular activity against isoniazid/rifampicin/streptomycin/para-aminosalicylic acid/ofloxacin-resistant Mycobacterium tuberculosis K29b00MR assessed as inhibition of bacterial growth incubated for 2 weeks; settings: 336 h
# [13] = tested on: Mycobacterium tuberculosis; experiment: Antitubercular activity against isoniazid/rifampicin/ethambutol/rifabutin-resistant Mycobacterium tuberculosis NIH_G10R assessed as inhibition of bacterial growth incubated for 2 weeks; settings: 336 h
# [14] = tested on: Mycobacterium tuberculosis; experiment: Antitubercular activity against isoniazid/rifampicin/ethambutol/streptomycin/D-cycloserine/rifabutin-resistant Mycobacterium tuberculosis NIH_G19R assessed as inhibition of bacterial growth incubated for 2 weeks; settings: 336 h
# [15] = tested on: Mycobacterium tuberculosis; experiment: Antitubercular activity against isoniazid/rifampicin/ethambutol/pyrazinamide/streptomycin/kanamycin-resistant Mycobacterium tuberculosis K20b00MR assessed as inhibition of bacterial growth incubated for 2 weeks; settings: 336 h
# [16] = tested on: Mycobacterium tuberculosis; experiment: Antitubercular activity against isoniazid/rifampicin/kanamycin/pyrazinamide/capreomycin/amikacin/prothionamide/D-cycloserine-resistant Mycobacterium tuberculosis K32b00MR assessed as inhibition of bacterial growth incubated for 2 weeks; settings: 336 h
# [17] = tested on: Mycobacterium tuberculosis; experiment: Antitubercular activity against isoniazid/rifampicin/ethambutol/pyrazinamide/streptomycin/kanamycin/para-aminosalicylic acid/prothionamide-resistant Mycobacterium tuberculosis K33b00MR assessed as inhibition of bacterial growth incubated for 2 weeks; settings: 336 h
# [18] = tested on: Mycobacterium tuberculosis; experiment: Antitubercular activity against isoniazid/rifampicin/ethambutol/para-aminosalicylic acid/kanamycin/ofloxacin/prothionamide-resistant Mycobacterium tuberculosis Kb019 assessed as inhibition of bacterial growth incubated for 2 weeks; settings: Kb019, 336 h
# [19] = tested on: Mycobacterium tuberculosis; experiment: Antitubercular activity against extensively drug-resistant Mycobacterium tuberculosis 026K111 assessed as inhibition of bacterial growth incubated for 2 weeks; settings: 026K111, 336 h
# [20] = tested on: Mycobacterium tuberculosis; experiment: Antitubercular activity against extensively drug-resistant Mycobacterium tuberculosis 028K111 assessed as inhibition of bacterial growth incubated for 2 weeks; settings: 028K111, 336 h
# [21] = tested on: Mycobacterium tuberculosis; experiment: Antitubercular activity against extensively drug-resistant Mycobacterium tuberculosis clinical strain 00202293 assessed as inhibition of bacterial growth incubated for 2 weeks; settings: Mycobacterium tuberculosis, 00202293, 336 h
# [22] = tested on: Mycobacterium tuberculosis; experiment: Antitubercular activity against extensively drug-resistant Mycobacterium tuberculosis clinical strain X37b00XR assessed as inhibition of bacterial growth incubated for 2 weeks; settings: 336 h
# [23] = tested on: Mycobacterium tuberculosis; experiment: Antitubercular activity against isoniazid/ethionamide-resistant Mycobacterium tuberculosis NIH1B21 assessed as inhibition of bacterial growth incubated for 2 weeks; settings: NIH1B21, 336 h
# [24] = tested on: Mycobacterium tuberculosis; experiment: Antitubercular activity against isoniazid/ethambutol/prothionamide/D-cycloserine/ofloxacin/levofloxacin/pyrazinamide-resistant Mycobacterium tuberculosis NIH1B314 assessed as inhibition of bacterial growth incubated for 2 weeks; settings: NIH1B314, 336 h
# [25] = tested on: Mycobacterium tuberculosis; experiment: Antitubercular activity against isoniazid/prothionamide-resistant Mycobacterium tuberculosis NIHA38 assessed as inhibition of bacterial growth incubated for 2 weeks; settings: NIHA38, 336 h
# [26] = tested on: Mycobacterium tuberculosis; experiment: Antitubercular activity against isoniazid/prothionamide-resistant Mycobacterium tuberculosis NIHB140 assessed as inhibition of bacterial growth incubated for 2 weeks; settings: NIHB140, 336 h
# [27] = tested on: Mycobacterium tuberculosis; experiment: Antitubercular activity against rifampicin/isoniazid/streptomycin/prothionamide-resistant Mycobacterium tuberculosis NIHB43 assessed as inhibition of bacterial growth incubated for 2 weeks; settings: NIHB43, 336 h
# [28] = tested on: Mycobacterium tuberculosis; experiment: Antitubercular activity against isonizaid/rifampicin/ethambutol/rifabutin/D-cycloserine-resistant Mycobacterium tuberculosis NIH_G21R assessed as inhibition of bacterial growth incubated for 2 weeks; settings: 336 h
# [29] = tested on: Mycobacterium tuberculosis; experiment: Antitubercular activity against isonizaid/rifampicin/ethambutol/rifabutin-resistant Mycobacterium tuberculosis NIH_G22R assessed as inhibition of bacterial growth incubated for 2 weeks; settings: 336 h
# [30] = tested on: Mycobacterium tuberculosis; experiment: Antitubercular activity against isonizaid/rifampicin/ethambutol/rifabutin-resistant Mycobacterium tuberculosis NIH_G269DR assessed as inhibition of bacterial growth incubated for 2 weeks; settings: 336 h
# [31] = tested on: Mycobacterium tuberculosis; experiment: Antitubercular activity against isonizaid/rifampicin/streptomycin/ethionamide-resistant Mycobacterium tuberculosis NIH_G79 assessed as inhibition of bacterial growth incubated for 2 weeks; settings: NIH_G79, 336 h
# [32] = tested on: Mycobacterium tuberculosis; experiment: Antitubercular activity against isonizaid/rifampicin/rifabutin-resistant Mycobacterium tuberculosis NIHA37 assessed as inhibition of bacterial growth incubated for 2 weeks; settings: NIHA37, 336 h
# [33] = tested on: Mycobacterium tuberculosis; experiment: Antitubercular activity against isonizaid/rifampicin/ethionamide/prothionamide-resistant Mycobacterium tuberculosis NIHA48 assessed as inhibition of bacterial growth incubated for 2 weeks; settings: NIHA48, 336 h
# [34] = tested on: Mycobacterium tuberculosis; experiment: Antitubercular activity against isoniazid/rifampicin/ethambutol/pyrazinamide/rifabutin/prothionamide-resistant Mycobacterium tuberculosis NIHB302 assessed as inhibition of bacterial growth incubated for 2 weeks; settings: NIHB302, 336 h
# [35] = tested on: Mycobacterium tuberculosis; experiment: Antitubercular activity against isoniazid/rifampicin/para-aminosalicylic acid/ofloxacin/prothionamide-resistant Mycobacterium tuberculosis NIHB67 assessed as inhibition of bacterial growth incubated for 2 weeks; settings: NIHB67, 336 h
# [36] = tested on: Mycobacterium tuberculosis; experiment: Antitubercular activity against isoniazid/rifampicin/para-aminosalicylic acid/pyrazinamide/prothionamide/rifabutin-resistant Mycobacterium tuberculosis NIHB68 assessed as inhibition of bacterial growth incubated for 2 weeks; settings: NIHB68, 336 h
# [37] = tested on: Mycobacterium tuberculosis; experiment: Antitubercular activity against isoniazid/rifampicin/moxifloxacin-resistant Mycobacterium tuberculosis NIH_G367DR assessed as inhibition of bacterial growth incubated for 2 weeks; settings: 336 h
# [38] = tested on: Mycobacterium tuberculosis; experiment: Antitubercular activity against isoniazid/rifampicin/moxifloxacin-resistant Mycobacterium tuberculosis NIH_G76MR assessed as inhibition of bacterial growth incubated for 2 weeks; settings: 336 h
# [39] = tested on: Mycobacterium tuberculosis; experiment: Antitubercular activity against isoniazid/rifampicin/pyrazinamide/prothionamide/rifabutin/ofloxacin/moxifloxacin/levofloxacin-resistant Mycobacterium tuberculosis NIHB188 assessed as inhibition of bacterial growth incubated for 2 weeks; settings: NIHB188, 336 h
# [40] = tested on: Mycobacterium tuberculosis; experiment: Antitubercular activity against isoniazid/rifampicin/ethambutol/pyrazinamide/prothionamide/ofloxacin/levofloxacin/rifabutin-resistant Mycobacterium tuberculosis NIHB270 assessed as inhibition of bacterial growth incubated for 2 weeks; settings: NIHB270, 336 h
# [41] = tested on: Mycobacterium tuberculosis; experiment: Antitubercular activity against extensively drug-resistant Mycobacterium tuberculosis NIH1B178 assessed as inhibition of bacterial growth incubated for 2 weeks; settings: NIH1B178, 336 h
# [42] = tested on: Mycobacterium tuberculosis; experiment: Antitubercular activity against extensively drug-resistant Mycobacterium tuberculosis NIH1B250 assessed as inhibition of bacterial growth incubated for 2 weeks; settings: NIH1B250, 336 h
# [43] = tested on: Mycobacterium tuberculosis; experiment: Antitubercular activity against extensively drug-resistant Mycobacterium tuberculosis NIHB13 assessed as inhibition of bacterial growth incubated for 2 weeks; settings: NIHB13, 336 h
smiles,measurement,setting,value
COc1nc2ccc(Br)cc2cc1[C@@H](c1ccccc1)[C@@](O)(CCN(C)C)c1cccc2ccccc12 [BEDAQUILINE],MIC,[1],0.15 µM
same,MIC,[2],0.2 µM
same,MIC,[3],0.15 µM
same,MIC,[4],0.1 µM
same,MIC,[5],0.1 µM
same,MIC,[6],0.05 µM
same,MIC,[7],0.04 µM
same,MIC,[8],0.07 µM
same,MIC,[9],0.15 µM
same,MIC,[10],0.1 µM
same,MIC,[11],0.1 µM
same,MIC,[12],0.2 µM
same,MIC,[13],0.1 µM
same,MIC,[14],0.1 µM
same,MIC,[15],< 0.02 µM
same,MIC,[16],0.1 µM
same,MIC,[17],0.07 µM
same,MIC,[18],0.07 µM
same,MIC,[19],0.2 µM
same,MIC,[20],0.15 µM
same,MIC,[21],0.02 µM
same,MIC,[22],0.1 µM
same,MIC,[23],0.07 µM
same,MIC,[24],< 0.02 µM
same,MIC,[25],0.05 µM
same,MIC,[26],0.05 µM
same,MIC,[27],0.05 µM
same,MIC,[28],0.02 µM
same,MIC,[29],0.1 µM
same,MIC,[30],0.1 µM
same,MIC,[31],0.07 µM
same,MIC,[32],0.05 µM
same,MIC,[33],0.1 µM
same,MIC,[34],0.04 µM
same,MIC,[35],0.3 µM
same,MIC,[36],0.1 µM
same,MIC,[37],< 0.02 µM
same,MIC,[38],< 0.02 µM
same,MIC,[39],0.04 µM
same,MIC,[40],0.07 µM
same,MIC,[41],0.05 µM
same,MIC,[42],0.07 µM
same,MIC,[43],0.05 µM
O=C(C1CCN(c2nnc(-c3ccccc3)o2)CC1)N1CCC(Cc2ccccc2)CC1,MIC,[1],0.6 µM
same,MIC,[2],1.2 µM
same,MIC,[3],0.39 µM
same,MIC,[4],0.6 µM
same,MIC,[5],0.39 µM
same,MIC,[6],0.78 µM
same,MIC,[7],1.56 µM
same,MIC,[8],1.2 µM
same,MIC,[9],1.56 µM
same,MIC,[10],1.2 µM
same,MIC,[11],1.2 µM
same,MIC,[12],1.2 µM
same,MIC,[13],0.6 µM
same,MIC,[14],1.56 µM
same,MIC,[15],4.7 µM
same,MIC,[16],1.56 µM
same,MIC,[17],2.3 µM
same,MIC,[18],4.7 µM
same,MIC,[19],1.56 µM
same,MIC,[20],1.56 µM
same,MIC,[21],1.56 µM
same,MIC,[22],3.13 µM
same,MIC,[23],1.56 µM
same,MIC,[24],3.13 µM
same,MIC,[25],0.39 µM
same,MIC,[26],0.6 µM
same,MIC,[27],0.78 µM
same,MIC,[28],2.3 µM
same,MIC,[29],1.2 µM
same,MIC,[30],1.2 µM
same,MIC,[31],1.56 µM
same,MIC,[32],0.39 µM
same,MIC,[33],1.56 µM
same,MIC,[34],0.78 µM
same,MIC,[35],0.78 µM
same,MIC,[36],0.39 µM
same,MIC,[37],3.13 µM
same,MIC,[38],1.2 µM
same,MIC,[39],0.6 µM
same,MIC,[40],1.56 µM
same,MIC,[41],0.78 µM
same,MIC,[42],2.3 µM
same,MIC,[43],0.78 µM
